Source: patent US7285680B2, “β-alanine derivatives and the use thereof” (Ono Pharmaceutical Co., Ltd., priority 2002, dated 2007)

Molecular target: human EDG-2 (Homo sapiens, UniProt Q92633)
Assay: Evaluation of EDG-2 antagonistic activity by monitoring the change of intracellular calcium ion concentration
Format: cell-based
Settings: CHO cells overexpressing human EDG-2 gene; LPA final concentration 100 nM; Fura2-AM intracellular calcium; compound 1 nM to 10 μM
Experimental: Evaluation of EDG-2 Antagonistic Activity by Monitoring the Change of Intracellular Calcium Ion Concentration
Evaluation of EDG-2 antagonistic activity was carried out by using Chinese hamster ovary (CHO) cells which overexpressed human EDG-2 gene. Those cells were cultured with Ham's F12 medium (GIBCO BRL company No.11765-047) containing 10% FBS (fetal bovine serum), penicillin/streptomycin and blasticidin (5 μg/ml). At first in order to uptake Fura2-AM (Dojindo company No.348-05831) into the cells, cells were incubated for 60 minutes at 37 degrees in Fura2-AM (5 μM) solution [Ham's F12 medium containing 10% FBS, 20 mM HEPES buffer (pH 7.4) and 2.5 mM probenecid (Sigma company No.P-8761)]. […] Plates were set in fluorescent drug screening system (Hamamatsu photonics company, FDSS-2000) and intracellular calcium ion concentration was measured for 30 seconds with no stimulation and then solution of the compound of the present invention represented by formula (I) was added. Five minutes after adding thereto LPA (final concentration: 100 nM) was added, the increase of intracellular calcium ion concentrations before and after the addition of LPA (excitation wave length: […]; fluorescent wave length: 500 nm) were measured every 3 seconds. […]

Sequence of human EDG-2 (Q92633 whole entry): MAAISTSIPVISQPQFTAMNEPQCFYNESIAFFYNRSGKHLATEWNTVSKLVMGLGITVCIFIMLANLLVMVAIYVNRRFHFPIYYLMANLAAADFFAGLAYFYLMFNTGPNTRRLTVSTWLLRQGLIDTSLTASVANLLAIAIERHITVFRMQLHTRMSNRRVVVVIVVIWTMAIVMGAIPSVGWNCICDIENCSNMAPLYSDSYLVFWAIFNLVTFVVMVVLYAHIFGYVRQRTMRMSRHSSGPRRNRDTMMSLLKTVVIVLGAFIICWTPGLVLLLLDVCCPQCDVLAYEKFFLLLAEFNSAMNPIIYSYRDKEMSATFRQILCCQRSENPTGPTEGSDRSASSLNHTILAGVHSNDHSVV

Structure (SMILES) | IC50
COc1ccc(OC)c(CCN(CCC(=O)O)C(=O)c2ccccc2-c2ccccc2C(=O)NCc2cccnc2)c1 [Example 3(1), 3-(N-((2-(2-((pyridin-3-ylmethylamino)carbonyl)phenyl)phenyl)carbonyl)-N-(2-(2,5-dimethoxyphenyl)ethyl)amino)propanoic acid] | 780 nM
COc1ccc(OC)c(CCN(CCC(=O)O)C(=O)c2ccccc2-c2ccccc2C(=O)NCc2ccc(Cl)cc2)c1 [Example 3, 3-(N-((2-(2-((4-chlorobenzylamino)carbonyl)phenyl)phenyl)carbonyl)-N-(2-(2,5-dimethoxyphenyl)ethyl)amino)propanoic acid] | 410 nM
